Measured values from US12600732B2, “Bifunctional compounds for degrading BTK via ubiquitin proteosome pathway” (NURIX THERAPEUTICS, INC., priority 2019, dated 2026).
pEC50: −log10 of the molar value. Values joined by “and” are separate entries in the source; they are usually repeats but may differ in a detail not shown here. Identical values can stand only once. Like-named read-outs stand apart in the source and are kept apart here.

Tests used:
BTK C481S = BTK C481S (Homo sapiens, UniProt Q06187, C481S); experiment: BTK degradation (Total BTK HTRF) in TMD8 cells expressing BTK-C481S; format: cell-based; parameters: endogenous in cells; host or cells: TMD8 BTK-C481S (clone2C3), Cas9 RNP knock-in; settings: TMD8 BTK-C481S (clone2C3) cells, treatment time 4 h
Method: BTK levels were determined using Cisbio Total-BTK HTRF (Homologous Time-Resolved Fluorescence) kit (63ADK064PEG) according to the manufacturer's protocol. Briefly, cells were incubated in 1× supplied lysis buffer for 30 minutes. In an opaque white low volume 96-well plate (Cisbio, 66PL96005), cell lysate was combined with two different specific BTK antibodies, one conjugated with Eu^3+-Cryptate FRET donor and one conjugated with d2 FRET acceptor. Assay controls include wells containing cell lysate with only the Eu^3+-Cryptate FRET donor antibody and wells containing both HTRF antibodies and lysis buffer without cells or control lysate provided by Cisbio. HTRF ratio was calculated as (acceptor signal at 665 nm/donor signal at 620 nm)×10^4. Background HTRF levels were determined from the control well containing the donor, but no acceptor, antibody. Background HTRF levels were subtracted from all samples. Readouts were reported as HTRF levels relative to HTRF levels of DMSO-treated cells. Four-parameter non-linear regressions were performed in GraphPad Prism 7.02 to obtain DC50 values.
BTK Degradation (Total BTK HTRF) at Four Hours in TMD8 Cells Expressing BTK-C481S
This example evaluates the potency of CTM in degrading […]. The BTK binding moieties utilized in CTMs bind to the BTK active site. This example evaluates whether the active site mutation C481S affects CTM-induced degradation of BTK.

BTK [1] = molecular target: T1, BTK (Mus musculus, UniProt P35991); experiment: In vivo degradation of BTK in mouse PD experiments with oral dosing
T1 construct: from tissue; host or cells: mouse blood B cells / splenocytes (CD-1 or BALB/c)
Outline: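 CD-1 or BALB/c mice dosed by oral gavage, screens at 90 mg/kg for 6 h, later at lower doses/longer times. Blood or splenocyte BTK measured by intracellular flow cytometry (or HTRF); % degradation from B-cell minus T-cell BTK geometric MFI, relative to vehicle.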

primary human T cells [2] = experiment: T cell activation assay, IL-2 secretion (ELISA); format: cell-based
Outline: (§1)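 Primary human T cells stimulated via TCR with anti-CD3/anti-CD28 in the presence of test compound. IL-2 secretion measured by ELISA; surface CD25 and CD69 by flow cytometry. Values are fold-change versus anti-CD3/anti-CD28 stimulation without compound.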

BTK [3] = molecular target: BTK (Homo sapiens, UniProt Q06187); experiment: BTK remaining in TMD8 WT mouse xenograft study; format: in vivo; parameters: from tissue; host or cells: TMD8 xenograft in CB.17 SCID mice; settings: PO, 30 mg/kg, QD, 21 days of dosing
Text: Efficacy in Mouse Xenograft Models
(§2) This example examines the activity of various BTK CTMs in relevant disease models, including the WT and C481S TMD8 model, which models B cell malignancies with/without inhibitor-driven BTK mutations at C481.

TMD8 cells = experiment: Cell viability assay (CellTiter-Glo), TMD8 cells; settings: for pEC50: Homo sapiens, TMD8, 72 h; for EMAX (% viable cells): TMD8 cells, treatment time 72 h
TMD8 tumor cells = experiment: TMD8 xenograft efficacy study (wild-type BTK); format: in vivo, mouse; settings: TMD8 WT, PO, 30 mg/kg, QD, 21 days of dosing
Method: […] Tumor growth inhibition (% TGI) were calculated on the final day of measurement using the equation [1−(T−T0/C−T0)]×100, where T and C represent the mean size of tumors in the treated (T) and control (C) groups, and T0 refers to the tumor size at randomization.
as §2

[4] = PK data for BTK CTMs (in vivo plasma concentrations); settings: for Vd: read-out: Volume of Distribution
Text: The present example evaluates in vivo plasma concentrations of BTK CTMs to develop PK-PD-efficacy relationship and predict human exposure.

[5] = system: B cell receptor (BCR) signaling; experiment: B cell activation assay (flow cytometry), mouse B cells; format: cell-based; settings: treatment 4 h, IgM stimulation 18 h
Method: Compound was present throughout the stimulation. Cells were stained with Live/Dead dye (Fisher L34976) and then fluorophore-conjugated antibodies against CD20 (Biolegend 302330), CD3 (BD Pharmingen 557705), CD86 (Biolegend 305416) and CD69 (Biolegend 310906). Stained cells were fixed in PFA and run on an Attune N×T Acoustic Focusing Flow Cytometer (Thermo-Fisher A29004), and data was analyzed using FlowJo (v10.5.3) and GraphPad Prism (v7.00) software. Single live lymphocytes were gated for B cells (CD20+CD3−) and T cells (CD3+CD20−), and the geometric mean fluorescence intensity (MFI) of CD86 and CD69 was calculated for each population. The MFI of the unstimulated sample was used to quantify baseline activation.
This example evaluates whether CTM treatment affects B cell receptor (BCR) signaling. BTK is activated downstream of the B cell receptor and leads to upregulation of activation markers CD86 and CD69 on the surface of B cells.

primary human T cells [6] = experiment: T cell activation assay, CD25 and CD69 staining (flow cytometry); format: cell-based; settings: fold-change of response relative to baseline
Outline: as §1

TMD8 C481S cells = experiment: Cell viability assay (CellTiter-Glo), TMD8 C481S cells; settings: for pEC50: Homo sapiens, TMD8, 72 h; for EMAX (% viable cells): TMD8 C481S cells, treatment time 72 h
Method: Cell viability was determined using CellTiter-Glo 2.0 Luminescent Cell Viability Assay (Promega, G9242), which quantitates the amount of ATP present as a proxy for the number of viable cells in culture. Cells were plated with densities between 2000-4000 cells per well in 96-well plates. […] CellTiter-Glo reagent was added to cells at a dilution of 1:20, and the plate was incubated ten minutes at room temperature prior to reading the luminescence signal using an EnVision plate reader. Controls included cells treated with DMSO and wells that contained no cells, only media. Background luminescence signal was determined by control wells containing no cells, only media, and was then subtracted from all sample wells. Luminescence values were then normalized to DMSO-treated wells and reported at proportion viable cells.

[7] = oral dose 3 mg/kg, 6 h, blood, flow cytometry
[8] = oral dose 3 mg/kg, 24 h, blood, flow cytometry
[9] = 1.4 nM, fold-change of response relative to baseline
[10] = 37 nM, fold-change of response relative to baseline
[11] = 333 nM, fold-change of response relative to baseline (stimulation without compound)
[12] = Rat Sprague-Dawley, 10 mg/kg PO

| Compound | DC50 (BTK C481S) | % BTK Remaining (BTK [1]; [7]) | % BTK Remaining (BTK [1]; [8]) | IL-2 Secretion Anti-CD3/Anti-CD28 Stimulation (primary human T cells [2]; [9]) | IL-2 Secretion Anti-CD3/Anti-CD28 Stimulation (primary human T cells [2]; [10]) | IL-2 Secretion Anti-CD3/Anti-CD28 Stimulation (primary human T cells [2]; [11]) | BTK Remaining (% relative to vehicle) (BTK [3]) | pEC50 (TMD8 cells) | EMAX (% viable cells) (TMD8 cells) | Tumor Growth Inhibition (relative to vehicle) (TMD8 tumor cells) | AUC ([4]; Mouse Balb/c, 1 mg/kg IV) | clearance ([4]; Mouse Balb/c, 1 mg/kg IV) | Vd ([4]; Mouse Balb/c, 1 mg/kg IV) | AUC ([4]; Mouse Balb/c, 30 mg/kg PO) | bioavailability ([4]; Mouse Balb/c, 30 mg/kg PO) | AUC ([4]; Rat Sprague-Dawley, 1 mg/kg IV) | clearance ([4]; Rat Sprague-Dawley, 1 mg/kg IV) | Vd ([4]; Rat Sprague-Dawley, 1 mg/kg IV) | pEC50 (TMD8 C481S cells) | EMAX (% viable cells) (TMD8 C481S cells) | further results |
| --- | --- | --- | --- | --- | --- | --- | --- | --- | --- | --- | --- | --- | --- | --- | --- | --- | --- | --- | --- | --- | --- |
| CN1CCN([C@@H]2CCCN(c3cnc(C(N)=O)c(Nc4ccc(C5CN(C6CCN(c7ccc8c(c7)C(=O)N(C7CCC(=O)NC7=O)C8=O)CC6)C5)cc4)n3)C2)C1=O (some centres unmarked) [Compound 37] | 2.7 nM | 26% | 51% | 1.16 | 2.06 | 1.64 | 16% | 7.68 | 10% | 41% | 1.77 µM·h | 12 mL/min/kg | 1.2 L/kg | 1.79 µM·h | 5% | 0.59 µM·h | 36.3 mL/min/kg | 4.6 L/kg | 7.29 | 16% | AUC [4, 12]: 0.027 µM·h; bioavailability [4, 12]: 1%; pEC50 ([5]; read-out: CD69 EC50): 10.00; pEC50 ([5]; read-out: CD86 EC50): 9.70; CD25 Staining Anti-CD3/Anti-CD28 Stimulation (primary human T cells [6]; 1.4 nM): 1.11; CD69 Staining Anti-CD3/Anti-CD28 Stimulation (primary human T cells [6]; 1.4 nM): 1.08; CD25 Staining Anti-CD3/Anti-CD28 Stimulation (primary human T cells [6]; 37 nM): 0.79; CD69 Staining Anti-CD3/Anti-CD28 Stimulation (primary human T cells [6]; 37 nM): 0.77; CD25 Staining Anti-CD3/Anti-CD28 Stimulation (primary human T cells [6]; 333 nM): 0.43; CD69 Staining Anti-CD3/Anti-CD28 Stimulation (primary human T cells [6]; 333 nM): 0.45 |
| CN1CCN([C@@H]2CCCN(c3cnc(C(N)=O)c(Nc4ccc(C5CCN(C6CN(c7ccc8c(c7)C(=O)N(C7CCC(=O)NC7=O)C8=O)C6)CC5)cc4)n3)C2)C1=O (some centres unmarked) [Compound 53] | 8 nM | 35% | 56% | 1.22 | 2.08 | 2.53 | 19% | 8.65 | 16% | 27% | 2.75 µM·h | 7.5 mL/min/kg | 0.88 L/kg | 96 µM·h | 113% | 0.31 µM·h | 75 mL/min/kg | 5.9 L/kg | 7.79 | 24% | AUC [4, 12]: 2.3 µM·h; bioavailability [4, 12]: 97%; CD25 Staining Anti-CD3/Anti-CD28 Stimulation (primary human T cells [6]; 1.4 nM): 1.09; CD69 Staining Anti-CD3/Anti-CD28 Stimulation (primary human T cells [6]; 1.4 nM): 1.06; CD25 Staining Anti-CD3/Anti-CD28 Stimulation (primary human T cells [6]; 37 nM): 1.14; CD69 Staining Anti-CD3/Anti-CD28 Stimulation (primary human T cells [6]; 37 nM): 1.07; CD25 Staining Anti-CD3/Anti-CD28 Stimulation (primary human T cells [6]; 333 nM): 0.84; CD69 Staining Anti-CD3/Anti-CD28 Stimulation (primary human T cells [6]; 333 nM): 0.83 |
| CN1CCN([C@@H]2CCCN(c3cnc(C(N)=O)c(Nc4ccc(N5CCC6(CC5)CCN(c5ccc7c(c5)C(=O)N(C5CCC(=O)NC5=O)C7=O)CC6)cc4)n3)C2)C1=O (some centres unmarked) [Compound 55] | 5.8 nM | – | 55% | – | – | – | 27% | 8.62 | 15% | 17% | 8.64 µM·h | 2.4 mL/min/kg | 0.48 L/kg | 74.3 µM·h | 29% | – | – | – | 7.77 | 19% | % BTK Remaining (BTK [1]; oral dose 0.3 mg/kg, 24 h, blood, flow cytometry): 83%; % BTK Remaining (BTK [1]; oral dose 0.3 mg/kg, 24 h, splenocytes, flow cytometry): 114%; % BTK Remaining (BTK [1]; oral dose 1 mg/kg, 6 h, splenocytes, HTRF, 1 mg/kg): 80% and 66%; % BTK Remaining (BTK [1]; oral dose 3 mg/kg, 6 h, splenocytes, HTRF): 18%; % BTK Remaining (BTK [1]; oral dose 3 mg/kg, 24 h, splenocytes, flow cytometry): 72%; % BTK Remaining (BTK [1]; oral dose 10 mg/kg, 24 h, blood, flow cytometry): 47%; % BTK Remaining (BTK [1]; oral dose 10 mg/kg, 24 h, splenocytes, flow cytometry): 45%; % BTK Remaining (BTK [1]; oral dose 30 mg/kg, 24 h, blood, flow cytometry): 39%; % BTK Remaining (BTK [1]; oral dose 30 mg/kg, 24 h, splenocytes, flow cytometry): 36%; % BTK Remaining (BTK [1]; oral dose 90 mg/kg, 24 h, blood, flow cytometry): 23%; % BTK Remaining (BTK [1]; oral dose 90 mg/kg, 24 h, splenocytes, flow cytometry): 48% |
| CN1CCN([C@H]2CCCN(c3cnc(C(N)=O)c(Nc4cnn(C5CCN(CC6CCN(c7ccc8c(c7)C(=O)N(C7CCC(=O)NC7=O)C8=O)CC6)CC5)c4)n3)C2)C1=O (some centres unmarked) [Compound 83] | 2.7 nM | 48% | 63% | – | – | – | 22% | 8.78 | 38% | 39% | 0.29 µM·h | 68.3 mL/min/kg | 4 L/kg | 0.81 µM·h | 9% | – | – | – | 8.37 | 52% | pEC50 ([5]; read-out: CD69 EC50): 10.10; pEC50 ([5]; read-out: CD86 EC50): 10.00 |
